Counter-ions that a name gives are not always drawn. Like-named read-outs stand apart in the source and are kept apart here.
Experiments:
[1] = led to fatally high body temperature; cited from earlier work
[2] = test system: HepG2 cells
[3] = test system: HepG2 cells; assay: Lactate released into the media; format: cell-based
[4] = test system: HepG2 cells; remark: listed apart in the source
[5] = test system: HepG2 cells; assay: Glucose concentration in the media; format: cell-based
[6] = test system: Jurkat cells; conditions: MNNG 100 μM, compound 1 mM
[7] = test system: HepG2 cells; assay: MNNG-induced cytotoxicity / cytoprotection (CellTiter-Blue Cell Viability Assay); format: cell-based; conditions: MNNG 600 μM, compound 1 mM
[8] = test system: HepG2 cells; assay: Total cellular NAD^+ level after MNNG-induced depletion (NAD/NADH Glo assay); format: cell-based; conditions: MNNG 100 μM, compound 1 mM
[9] = test system: Jurkat cells; assay: as above; format: cell-based; conditions: for % NAD^+ Repletion: MNNG 100 μM, compound 1 mM; for increase of NAD^+ level: 100 μM MNNG 30 min, wash, NR 100 μM or/and olaparib 5 nM 3.5 hr
[10] = test system: Jurkat cells; assay: NAD^+ assay (total cellular NAD^+ by HPLC/LCMS), with or without MNNG; conditions: Jurkat not treated with MNNG; NRH vs. NR 100 μM; 4 hr
[11] = 4 g of oral NTZ; healthy adults; cited from earlier work

## O=[N+]([O-])c1ccc(O)c([N+](=O)[O-])c1 [DNP, 2,4-Dinitrophenol]
[1]
  dose causing excessive systemic uncoupling, fold greater than minimum effective dose for reducing body weight: 3-10 fold
[2]
  activity of lactate dehydrogenase (LDH) released into the media: markedly increased
[3]
  concentration of lactate released into the media: markedly increased
[4]
  % viability of HepG2 cells: significantly reduced
[5]
  concentration of glucose in the media: significantly reduced

## NC(=O)c1ccc[n+]([C@@H]2O[C@H](COC(=O)CCC(=O)O)[C@@H](O)[C@H]2O)c1 [MP-42, 3-Carboxamide-1-((2R,3R,4S,5R)-5-(((3-carboxypropanoyl)oxy)methyl)-3,4-dihydroxytetrahydrofuran-2-yl)pyridin-1-ium Trifluoroacetate]
[6]
  % Cytoprotection: 4.5%
[7]
  % Cytoprotection: 9.9%
[8]
  % NAD^+ Repletion: 23.7%
[9]
  % NAD^+ Repletion: 8.2%

## COC(=O)CCC(=O)OC[C@H]1O[C@@H]([n+]2cccc(C(N)=O)c2)[C@H](O)[C@@H]1O [MP-43, 3-Carboxamide-1-((2R,3R,4S,5R)-3,4-dihydroxy-5-(((4-methoxy-4-oxobutanoyl)oxy)methyl)tetrahydrofuran-2-yl)pyridin-1-ium Trifluoroacetate]
[6]
  % Cytoprotection: 6.3%
[7]
  % Cytoprotection: 5.7%
[8]
  % NAD^+ Repletion: 31.1%
[9]
  % NAD^+ Repletion: 12.9%

## NC(=O)c1ccc[n+]([C@@H]2O[C@H](CO)[C@@H](O)[C@H]2O)c1 [NR, nicotinamide riboside, reference compound]
[9]
  increase of NAD^+ level: 43%

## NC(=O)C1=CN([C@@H]2O[C@H](CO)[C@@H](O)[C@H]2O)C=CC1 [NRH]
[10]
  NAD^+ level, NRH alone versus NR alone: markedly higher NAD^+ level than NR alone
[3]; 50 μM DNP, 100 μM NRH or both, 4 hr, versus untreated, FIG. 28
  concentration of lactate released into the media: did not significantly affect
[5]; 50 μM DNP, 100 μM NRH or both, 4 hr, versus untreated, FIG. 29
  concentration of glucose in the media: did not significantly affect

## CC(=O)Oc1ccccc1C(=O)Nc1ncc([N+](=O)[O-])s1 [NTZ, nitazoxanide]
[11]
  adverse effect: does not cause any significant adverse effect

## O=C(c1cc(Cc2n[nH]c(=O)c3ccccc23)ccc1F)N1CCN(C(=O)C2CC2)CC1 [olaparib, reference compound]
[9]
  increase of NAD^+ level: 8%

— patent US20200397807A1, “NICOTINYL RIBOSIDE COMPOUNDS AND THEIR USES” (MitoPower, LLC, priority 2019, published 2020)
